Test results published in patent publication US6818049B1, “Environmentally preferred fluids and fluid blends” (ExxonMobil Chemical Patents Inc., priority 1998, dated 2004).
Where two headings read alike, the source gives them in different places. Marks after values point to notes of the source that are not given here.

How the values were obtained:
[1] = Stability to acid catalyst (pTSA) in acrylic solvent system, followed by gas chromatography; type: physicochemical; settings: 0.5 wt % pTSA, 50° C.; for Wt. % of Solvent At One Week Decomposition Period / Wt. % of Solvent At Three Week Decomposition Period: nitrogen atmosphere, start = 100
Method: Acrylic solvent systems were prepared to test the stability of dimethyl carbonate to acid catalysts, which are commonly present in coating compositions. The formulations contained 29.9 wt % DMC, 28.7 wt % pentyl acetate, 20.2 wt % n-butyl acetate, 16.1 wt % n-butyl alcohol, 3.6 wt % methyl ethyl ketone, 1.5 wt % isopropyl alcohol. 2 wt % toluene as an internal standard. The latter materials were purchased from Aldrich Chemical Co.
Para toluene sulfonic acid (PTSA) was added to the above formulation (again, pTSA was purchased from Aldrich Chemical Co.), in the amount of 0.5 wt %. The solutions were sealed and placed in an oven at 50° C. under a nitrogen atmosphere. Samples were withdrawn at intervals for testing. The content of dimethyl carbonate was monitored over time by gas chromatographic analysis using an HP 5890 gas chromatograph. In a parallel experiment an equal amount of tert. Butyl acetate was used instead of DMC. The results are shown below in Table 8 (all percentages are by weight).

[2] = reported literature data, cited from earlier work
Fluid solvent properties = settings: for Viscosity: 20° C.
Text: One of ordinary skill in the art can readily determine the flash point of a fluid or blend (e.g., ASTM D92-78).
The evaporation rate should be suitable for the intended purpose. […] The fluid selected preferably will have a similar evaporation rate to the disadvantaged fluid being replaced, particularly in the case where a fluid blend is used and an acceptable evaporation profile is desired. It is convenient for the fluid selected to have an evaporation rate less than 12 times the evaporation rate of n-butyl acetate. Evaporation rates may also be given relative to n-butyl acetate at 1.0 (ASTM D3539-87). Ranges of evaporation rates important for different applications are 5-3, 3-2, 2-1, 1.0-0.3, 0.3-0.1, and <0.1, relative to n-butyl acetate at 1.0. The present invention is related to fluids and fluid blends that at least partially evaporate into the atmosphere during or after their application.

Text for in vivo: One way to measure the toxic effects of a chemical is to measure the dose-effect relationship; the dose is usually measured in mg of chemical per kg of body mass. This is typically done experimentally by administering the chemical to mice or rats at several doses in the lethal range and plotting the logarithm of the dose versus the percentage of the population killed by the chemical. The dose lethal to 50% of the test population is called the median lethal dose (LD50) and is typically used as a guide for the toxicity of a chemical. […] EU (European Union) uses a cutoff of >2,000 mg/kg.

SMILES | Wt. % of Solvent At One Week Decomposition Period [1] | Wt. % of Solvent At Three Week Decomposition Period [1] | Flash Point [2] | LD50 (in vivo) | Boiling Temperature (Fluid solvent properties) | Evaporation Ratio to Butyl Acetate (Fluid solvent properties) | Specific Gravity (Fluid solvent properties) | Surface Tension (Fluid solvent properties) | Viscosity (Fluid solvent properties) | further results
CC(=O)OC(C)(C)C [t-butyl acetate] | 54.4 wt. % | 17.2 wt. % | – | – | – | – | – | – | – | –
CC(C)=O [Acetone] | – | – | −20* ° C. | 5800 mg/kg | 56 °C | 18 | 0.792 | 22.3 dyn/cm | 0.33 cps | Hansen Solubility Parameter, H-Bouding (Fluid solvent properties): 3.4; Hansen Solubility Parameter, Nonpolar (Fluid solvent properties): 7.6; Hansen Solubility Parameter, Polar (Fluid solvent properties): 5.1; Hansen Solubility Parameter, Total (Fluid solvent properties): 9.2
COC(C)=O [methyl acetate] | – | – | ~−12 °C | – | – | – | – | – | – | Flash Point ([2]; listed as Methyl acetate): about −12 °C
COC(=O)OC [DMC, dimethyl carbonate] | 97.8 wt. % | 95.4 wt. % | +19 to +32* ° C. | 13000 mg/kg | 90 °C | 3.2 | 1.065 | 29 dyn/cm | 0.60 cps | Stability to acid catalysts (in words) [1]: more stable to acid catalysts than is t-butyl acetate
CCCCOC(C)=O [Butyl Acetate] | – | – | 27 °C | – | – | – | – | – | – | –
COC(=O)C(C)(C)C [MP, methyl pivalate] | – | – | – | – | 99 °C | 2.2 | 0.873 | 23.8 dyn/cm | 0.74 cps | Flash Point (Fluid solvent properties): 27.2 °C
